The target in one experiment is recombinant human HDACs (Homo sapiens). Nature of the experiment: HDAC enzymatic assay. Particulars: 5 nM HDAC enzyme, 5 h pre-incubation, 17 h reaction at 25° C.; isoform not given. The format is biochemical. As to the method:
All recombinant human HDACs were purchased from BPS Bioscience. The substrate, FAM-TSRHK(AC)KL-CONH, was synthesized at NanoSyn. Final assay reactions contained 100 mM HEPES (pH 7.5), 50 mM KCl, 0.1% BSA, 0.01% Triton X-100, 1% DMSO, 1 uM substrate and 5 nM HDAC enzyme. Enzyme and compounds were pre-incubated at 25° C. for 5 hours and reactions were initiated by addition of substrate. 10 uL reactions were incubated for 17 hours at 25° C. and terminated by the addition of 40 uL of buffer containing 100 mM HEPES (pH 7.5), 0.1% BSA, 0.01% Triton X-100 and 0.05% SDS. Substrate and product peptides present in each sample were separated electrophoretically using the LabChip 3000 capillary electrophoresis instrument. Change in the relative fluorescence intensity of the substrate and product peaks reflects enzyme activity. Reaction progress was determined as the product to sum ratio (PSR):P/(S+P), where P is the peak height of the product peptide and S is the peak height of the substrate peptide. Reactions were performed in duplicate at 12 concentrations, (3× serial dilutions starting at 30 uM). IC50 values were calculated using a 4 Parameter Logistic Model.
Turning to `COCc1cc2c(cn1)CN(C(=O)Nc1nc(-c3ccc(F)cc3)ccc1N)C2` [Compound 243], the IC50 (in general, the point on the concentration scale where inhibition reaches its midpoint) fell in the range of 0.1 to 0.5 µM.

Staying with this experiment, now noted: 5 nM HDAC enzyme, 5 h pre-incubation, 17 h reaction at 25° C.; isoform not given; read-out: IC50.
For the compound `Nc1ccc(-c2ccc(F)cc2)nc1NC(=O)N1Cc2ccc(CN3CCC(C(F)(F)F)C3)cc2C1` (stereo not drawn) [Compound 408], the IC50 lay within 0.1 to 0.5 µM.

Regarding `CN1CCC(COC(=O)Nc2nc(-c3cccnc3)ccc2N)CC1` [Compound 375], the IC50 is above 5 µM. As to `Nc1ccc(-c2ccc(OC(F)F)cc2)nc1NC(=O)N1Cc2nccnc2C1` [Compound 228], the IC50 fell in the range of 0.5 to 5 µM.

Regarding `Nc1ccc(-c2ccc(F)cc2)nc1NC(=O)N1C[C@@H]2[C@H](C1)[C@H]2NC1COC1` [Compound 267], the IC50 is above 5 µM. The same measure, in the same setting: for `Nc1ccc(-c2ccc(F)cc2)nc1NC(=O)N1Cc2cc(N3CCC3)cnc2C1` [Compound 254] the value was 0.5 to 5 µM. On to `CN1CCN(c2cnc3c(c2)CN(C(=O)Nc2nc(-c4ccc(F)cc4)ccc2N)C3)CC1` [Compound 159], for which the IC50 fell in the range of 0.1 to 0.5 µM. Same read-out and setting: next, `Nc1ccc(-c2ccc(F)cc2)nc1NC(=O)N1Cc2cc(CN3CC(F)(F)C3)cnc2C1` [Compound 266]: 0.5 to 5 µM. For the compound `CN1CC(Cn2ncc3c2CN(C(=O)Nc2nc(-c4ccc(F)cc4)ccc2N)C3)C1` [Compound 244], the IC50 fell in the range of 0.5 to 5 µM. The same measure, in the same setting: for `CN(C)Cc1ccc2c(c1)CN(C(=O)Nc1nc(-c3ccco3)ccc1N)C2` [Compound 365] the value was 0.1 to 0.5 µM. Regarding `Nc1ccc(-c2cccnc2)nc1NC(=O)N1CCC2(CCCNC2)C1` (stereo not drawn) [Compound 171], the IC50 was above 5 µM. For `Nc1ccc(-n2cccn2)nc1NC(=O)N1CC2CN(CCF)CC2C1` (stereo not drawn) [Compound 167], the half-maximal inhibitory concentration (IC50) is above 5 µM.

Take `CN(C)Cc1ccc2c(c1)CN(C(=O)Nc1nc(-c3ccc(F)cc3)ccc1N)C2` [Compound 371]: the IC50 is 0.1 to 0.5 µM. Same read-out and setting: next, `Nc1ccc(-c2cccnc2)nc1NC(=O)c1cn2c(n1)CNCC2` [Compound 219]: above 5 µM. With `CN1CC(Cn2cc3c(n2)CN(C(=O)Nc2nc(-c4ccc(F)cc4)ccc2N)C3)C1` [Compound 245], the IC50 was in the range of 0.1 to 0.5 µM.

Consider `CN1CC(CN2CC3CC(C(=O)Nc4nc(-c5ccc(F)cc5)ccc4N)CC3C2)C1` (stereo not drawn) [Compound 256], for which the IC50 lay in the range of 0.5 to 5 µM.

On to `Nc1ccc(-n2cccn2)nc1NC(=O)N1Cc2ccncc2C1` [Compound 369], for which the IC50 was in the range of 0.5 to 5 µM. On the same count and under the same terms, for `Nc1ccc(-c2ccc(F)cc2)nc1NC(=O)N1CCN(C(=O)C2C[C@H]2c2ccccc2)CC1` (stereo partly drawn) [Compound 225] the value was 0.5 to 5 µM.

Take `Cn1ncc2c1CN(C(=O)Nc1nc(-c3ccc(F)cc3)ccc1N)C2` [Compound 258]: the IC50 lay in the range of 0.5 to 5 µM. `Nc1cn(-c2ccccc2)nc1NC(=O)N1CC2COCC2C1` (stereo not drawn) [Compound 382]: the IC50 is above 5 µM. In the case of `Nc1ccc(-c2ccc(F)cc2)nc1NC(=O)N1Cc2cccnc2C1` [Compound 397], the IC50 was 0.1 to 0.5 µM. On the same count and under the same terms, next, `CN1CCC(C(=O)Nc2nn(-c3ccccc3)cc2N)CC1` [Compound 354]: above 5 µM; `Nc1ccc(-c2ccccc2)nc1NC(=O)N1CCn2cncc2C1` [Compound 212]: above 5 µM. Take `Nc1ccc(-c2ccco2)nc1NC(=O)C1CN(c2ccccn2)C1` [Compound 193]: the IC50 was above 5 µM. As for `CN1CCN(Cc2ccc3c(c2)CN(C(=O)Nc2nc(-c4ccc(F)cc4)ccc2N)C3)CC1` [Compound 367], the IC50 was in the range of 0.1 to 0.5 µM.

`Nc1ccc(-c2ccc(F)cc2)nc1NC(=O)N1CC2CN(CC3CCOCC3)CC2C1` (stereo not drawn) [Compound 235]: the IC50 was above 5 µM.

Turning to `CN1CCC(c2ccc3c(c2)CN(C(=O)Nc2nc(-c4ccc(F)cc4)ccc2N)C3)CC1` [Compound 387], the IC50 was in the range of 0.5 to 5 µM. Take `CC(=O)N1CCC(C(=O)Nc2nc(-c3ccccc3)ccc2N)CC1` [Compound 380]: the IC50 was above 5 µM.

Consider `Nc1ccc(-n2cccn2)nc1NC(=O)N1CC2CN(Cc3ccccc3F)CC2C1` (stereo not drawn) [Compound 177], for which the IC50 was above 5 µM. Still for that read-out and setting: next, `Nc1ccc(-c2cccnc2)nc1NC(=O)c1nc2c(s1)CCN(CCF)C2` [Compound 164]: 0.5 to 5 µM; `Nc1ccc(-n2cccn2)nc1NC(=O)C1CN(Cc2ccccc2)C1` [Compound 205]: above 5 µM. Regarding `CN1CCc2sc(C(=O)Nc3nc(-c4ccc(F)cc4)ccc3N)nc2C1` [Compound 153], the IC50 lay in the range of 0.1 to 0.5 µM. Consider `CN1CCN(c2ccc3c(c2)CN(C(=O)Nc2nn(-c4ccccc4)cc2N)C3)CC1` [Compound 352], for which the IC50 lay in the range of 0.5 to 5 µM. On the same count and under the same terms, for `Nc1ccc(-c2ccccc2)nc1NC(=O)N1CCn2ccnc2C1` [Compound 197] the value was above 5 µM; for `Nc1ccc(-c2ccc(F)cc2)nc1NC(=O)N1CC2CC(NC3COC3)CC2C1` (stereo not drawn) [Compound 172], 0.5 to 5 µM; for `Nc1ccc(-c2ccc(OC(F)F)cc2)nc1NC(=O)N1CCCC1` [Compound 232], 0.5 to 5 µM. In the case of `COc1ccc(-c2ccc(N)c(NC(=O)N3Cc4cc(F)cnc4C3)n2)cc1` [Compound 187], the IC50 was 0.5 to 5 µM. In the case of `CN1CCn2cc(C(=O)Nc3nc(-c4ccccc4)ccc3N)nc2C1` [Compound 206], the IC50 fell in the range of 0.5 to 5 µM. Take `CN1CCN(C2CC3CN(C(=O)Nc4nc(-c5ccc(F)cc5)ccc4N)CC3C2)CC1` (stereo not drawn) [Compound 179]: the IC50 lay in the range of 0.5 to 5 µM. Same read-out and setting: next, `Nc1ccc(-c2ccccc2)nc1NC(=O)C1CN(c2ccccn2)C1` [Compound 195]: above 5 µM; `CN(C)Cc1cnc2c(c1)CN(C(=O)Nc1nc(-c3cccnc3)ccc1N)C2` [Compound 161]: 0.1 to 0.5 µM. For the compound `Nc1cn(-c2ccccc2)nc1NC(=O)N1CCN(C2COC2)CC1` [Compound 356], the IC50 was above 5 µM. Still for that read-out and setting: next, `CN(C)CCN1CC2CN(C(=O)Nc3nc(-c4ccc(F)cc4)ccc3N)CC2C1` (stereo not drawn) [Compound 166]: 0.5 to 5 µM. Turning to `Nc1ccc(-c2ccc(F)cc2)nc1NC(=O)C1[C@H]2CN(C3COC3)C[C@@H]12` (stereo partly drawn) [Compound 239], the IC50 was above 5 µM. Still for that read-out and setting: next, `CN1CC2CN(C(=O)Nc3nc(-n4cccn4)ccc3N)CC2C1` (stereo not drawn) [Compound 184]: above 5 µM. Turning to `COc1cc2c(cn1)CN(C(=O)Nc1nc(-c3ccc(F)cc3)ccc1N)C2` [Compound 260], the IC50 lay within 0.1 to 0.5 µM.

As to `Nc1ccc(-c2ccccc2)nc1NC(=O)c1cn2c(n1)CNCC2` [Compound 208], the IC50 lay in the range of 0.5 to 5 µM. The same measure, in the same setting: next, `CN1CCN(Cc2cccc3c2CN(C(=O)Nc2nc(-c4ccc(F)cc4)ccc2N)C3)CC1` [Compound 178]: above 5 µM; `CN1CCC(c2cc3c(cn2)CN(C(=O)Nc2nc(-c4ccc(F)cc4)ccc2N)C3)CC1` [Compound 149]: 0.1 to 0.5 µM; `Cn1cc(CN2CCC3(CC2)CCN(C(=O)Nc2nc(-c4cccnc4)ccc2N)C3)cn1` [Compound 215]: above 5 µM. Turning to `CN1CCN(Cc2cnc3c(c2)CN(C(=O)Nc2nc(-c4ccc(F)cc4)ccc2N)C3)CC1` [Compound 168], the IC50 fell in the range of 0.1 to 0.5 µM. Consider `Nc1ccc(-c2ccc(F)cc2)nc1NC(=O)N1Cc2ccc(CN3CCC(F)(F)C3)cc2C1` [Compound 386], for which the IC50 lay in the range of 0.1 to 0.5 µM.

`CN1CCC2(CC1)CCN(C(=O)Nc1nc(-c3cccnc3)ccc1N)C2` [Compound 210]: the IC50 was above 5 µM.

Turning to `Nc1ccc(-c2ccc(F)cc2)nc1NC(=O)c1nc2c(s1)CCN(CCF)C2` [Compound 165], the IC50 is 0.1 to 0.5 µM. Regarding `CN1CCN(c2cc3c(cn2)CN(C(=O)Nc2nc(-c4ccc(F)cc4)ccc2N)C3)CC1` [Compound 160], the IC50 fell in the range of 0.1 to 0.5 µM. For `Nc1ccc(-c2ccco2)nc1NC(=O)N1CC2CN(CCF)CC2C1` (stereo not drawn) [Compound 174], the IC50 was above 5 µM. Consider `Nc1ccc(-c2ccc(F)cc2)nc1NC(=O)N1Cc2cnc(N3CCOCC3)cc2C1` [Compound 150], for which the half-maximal inhibitory concentration (IC50) was 0.1 to 0.5 µM. Same read-out and setting: for `CN(C1COC1)[C@H]1[C@@H]2CN(C(=O)Nc3nc(-c4ccc(F)cc4)ccc3N)C[C@@H]21` [Compound 262] the value was above 5 µM. On to `CN(C1CCOC1)C1CC2CN(C(=O)Nc3nc(-c4ccc(F)cc4)ccc3N)CC2C1` (stereo not drawn) [Compound 237], for which the IC50 is above 5 µM.

Take `COC[C@@H]1[C@H]2CN(C(=O)Nc3nc(-c4ccc(F)cc4)ccc3N)C[C@@H]12` [Compound 276]: the IC50 was in the range of 0.5 to 5 µM. Still for that read-out and setting: for `CN1CC(N2CC3CN(C(=O)Nc4nc(-c5ccc(F)cc5)ccc4N)CC3C2)C1` (stereo not drawn) [Compound 152] the value was 0.5 to 5 µM; for `CN(C)Cc1cnc2c(c1)CN(C(=O)Nc1nc(-c3ccc(F)cc3)ccc1N)C2` [Compound 154], 0.1 to 0.5 µM; for `Nc1ccc(-c2cccnc2)nc1NC(=O)N1Cc2cc(F)cnc2C1` [Compound 218], above 5 µM.

For `Nc1ccc(-c2ccc(F)cc2)nc1NC(=O)N1Cc2ccc(CN3CCCC3)cc2C1` [Compound 405], the IC50 lay in the range of 0.1 to 0.5 µM.

On to `Nc1ccc(-c2ccc(F)cc2)nc1NC(=O)N1Cc2cc(F)cnc2C1` [Compound 186], for which the IC50 is 0.5 to 5 µM. Still for that read-out and setting: next, `COCc1ccc2c(c1)CN(C(=O)Nc1nc(-c3ccc(F)cc3)ccc1N)C2` [Compound 396]: 0.1 to 0.5 µM; `CN1CC(C(=O)Nc2nc(-c3ccc(F)cc3)ccc2N)C1` [Compound 204]: above 5 µM. On the same count and under the same terms, next, `Nc1cn(-c2ccccc2)nc1NC(=O)N1CCC2(CCOCC2)C1` [Compound 407]: above 5 µM; `Nc1ccc(-c2ccc(F)cc2)nc1NC(=O)N1CC2CN(C3CCOCC3)CC2C1` (stereo not drawn) [Compound 236]: above 5 µM.

Values taken from patent US10919902B2, “Hetero-halo inhibitors of histone deacetylase” (Alkermes, Inc., priority 2015, dated 2021).
